From patent US11958861B2, “Spirocyclic lactams as JAK2 V617F inhibitors” (Incyte Corporation, priority 2021, dated 2024)
Structures can show the parent of a compound that is named as a salt.

Assays:
[1] = target: T1, catalytic domain (JH1, amino acids 826-1132) of human JAK2 (Homo sapiens, UniProt O60674); test: JAK2 LanthaScreen JH1 Binding Assay; details: 2 hours at 25° C.
T1 construct: catalytic domain (JH1, amino acids 826-1132) of human JAK2; purchased Carna Biosciences 08-445-20N; host or cells: baculovirus expression system
T1 sequence (O60674 826-1132): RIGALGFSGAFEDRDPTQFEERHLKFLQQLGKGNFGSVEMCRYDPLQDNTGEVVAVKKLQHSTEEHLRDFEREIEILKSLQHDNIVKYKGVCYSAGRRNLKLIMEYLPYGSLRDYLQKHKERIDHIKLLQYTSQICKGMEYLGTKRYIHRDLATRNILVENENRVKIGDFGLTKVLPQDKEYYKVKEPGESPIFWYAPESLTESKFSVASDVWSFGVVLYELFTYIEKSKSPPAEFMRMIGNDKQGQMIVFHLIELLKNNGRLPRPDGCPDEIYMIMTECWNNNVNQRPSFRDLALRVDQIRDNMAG
In short: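 FLAG-tagged biotinylated JAK2 JH1 (1.5 nM) incubated with compounds, 50 nM fluorescent tracer and 0.5 nM streptavidin-Tb in Tris pH 7.5 buffer with MgCl2, BSA, DTT, 2 h at 25 °C.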

[2] = target: T2, pseudo-kinase domain (JH2, amino-acids 536-812) of human V617F mutant JAK2 (Homo sapiens, UniProt O60674, F794H/V617F/W659A/W777A); test: JAK2 LanthaScreen JH2-V617F Binding Assay; details: 1 hour at 25° C.
T2 construct: pseudo-kinase domain (JH2, amino-acids 536-812 with 3 surface mutations W659A, W777A, F794H); purchased BPS Bioscience 79498; host or cells: baculovirus expression system
T2 sequence (O60674 536-812 V617F/W659A/W777A/F794H): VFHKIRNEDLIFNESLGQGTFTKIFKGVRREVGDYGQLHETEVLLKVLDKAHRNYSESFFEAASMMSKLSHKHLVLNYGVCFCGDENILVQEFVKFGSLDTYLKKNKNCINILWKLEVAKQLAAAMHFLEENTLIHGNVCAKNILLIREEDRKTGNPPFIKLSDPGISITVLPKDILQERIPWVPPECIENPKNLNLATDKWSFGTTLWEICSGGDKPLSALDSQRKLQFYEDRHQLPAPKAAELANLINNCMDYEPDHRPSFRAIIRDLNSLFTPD
In short: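 Competition of compounds with a fluorescent tracer (50 nM) for the biotinylated domain (0.26 nM), detected via streptavidin-Tb (0.25 nM) after 1 h at 25° C in pH 7.5 Tris buffer containing glycerol, BSA and Brij-35. ATP at 2 mM gave background. IC50 by four-parameter fit.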

[3] = target: T3, catalytic domain (JH1, amino acids 808-1132) of human JAK2 (Homo sapiens, UniProt O60674); test: JAK2 HTRF Enzyme Activity Assay; assay type: biochemical; details: ATP 30 μM, read-out: ENZ 30UMATP
T3 construct: catalytic domain (JH1, amino acids 808-1132) of human JAK2; His (N); purchased BPS Bioscience 40450; host or cells: baculovirus expression system
T3 sequence (O60674 808-1132): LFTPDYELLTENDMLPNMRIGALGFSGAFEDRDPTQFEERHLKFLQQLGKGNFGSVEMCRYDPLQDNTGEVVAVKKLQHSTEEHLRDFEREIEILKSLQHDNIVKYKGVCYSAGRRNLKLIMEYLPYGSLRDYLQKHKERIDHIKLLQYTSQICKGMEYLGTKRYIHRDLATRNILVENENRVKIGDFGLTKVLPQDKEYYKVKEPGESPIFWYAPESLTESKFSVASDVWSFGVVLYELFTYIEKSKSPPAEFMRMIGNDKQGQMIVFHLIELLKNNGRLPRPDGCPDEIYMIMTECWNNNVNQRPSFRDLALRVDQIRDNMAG
In short: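 His-tagged JAK2 JH1 from baculovirus, 0.015 nM, incubated with compound, ATP at 30 μM or 1 mM and 500 nM biotinylated peptide, pH 7.5, 60 min at 25° C. HTRF read-out via Eu-anti-phosphotyrosine and streptavidin-APC after EDTA stop; IC50 from four-parameter dose-response fit.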

[4] = target: T4, pseudo-kinase domain (JH2, amino-acids 536-812) of human Wild Type JAK2 (Homo sapiens, UniProt O60674, F794H/W659A/W777A); test: JAK2 LanthaScreen JH2-WT Binding Assay; details: 1 hour at 25° C.
T4 construct: pseudo-kinase domain (JH2, amino-acids 536-812 with 3 surface mutations W659A, W777A, F794H); purchased BPS Bioscience 79463; host or cells: baculovirus expression system
T4 sequence (O60674 536-812 W659A/W777A/F794H): as the sequence (O60674 536-812 V617F/W659A/W777A/F794H) above, with F82V counted along it
In short: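 Biotinylated His-Avi-tagged JAK2 JH2 (0.145 nM), baculovirus-expressed, incubated with compounds, 50 nM fluorescent JH2 tracer and 0.25 nM streptavidin-Tb, 1 h at 25° C in pH 7.5 Tris buffer with MgCl2 and DTT. Non-specific binding defined with 2 mM ATP. TR-FRET read; IC50 from four-parameter fit.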

| Structure (SMILES) | IC50 [1] [nM] | IC50 [2] [nM] | IC50 [3] [nM] | IC50 [4] [nM] |
| --- | --- | --- | --- | --- |
| CN1C(=O)C2(CCN(C3(CC#N)CCC3)CC2)c2c1cnc1[nH]c(-c3cnn(CCN4CCOCC4)c3)c(-c3ccc4c(cnn4C)c3)c21 [Example 38, 2-(1-(6-Methyl-1-(1-methyl-1H-indazol-5-yl)-2-(1-(2-morpholinoethyl)-1H-pyrazol-4-yl)-7-oxo-6,7-dihydro-3H-spiro[dipyrrolo[2,3-b:3′,2′-d]pyridine-8,4′-piperidin]-1′-yl)cyclobutyl)acetonitrile, trifluoroacetate salt] | 100 to 500 | ≤ 100 | ≤ 100 | ≤ 100 |
| CN1C(=O)C2(CCN(C3(CC#N)CCC3)CC2)c2c1cnc1[nH]c(-c3cnn(CC4CC4)c3)c(-c3ccc4c(cnn4C)c3)c21 [Example 39, 2-(1-(2-(1-(Cyclopropylmethyl)-1H-pyrazol-4-yl)-6-methyl-1-(1-methyl-1H-indazol-5-yl)-7-oxo-6,7-dihydro-3H-spiro[dipyrrolo[2,3-b:3′,2′-d]pyridine-8,4′-piperidin]-1′-yl)cyclobutyl)acetonitrile, trifluoroacetate salt] | 100 to 500 | ≤ 100 | 100 to 500 | ≤ 100 |
| CN1C(=O)C2(CCN(C3(CC#N)CCC3)CC2)c2c1cnc1[nH]c(-c3cn(C)nc3C3CC3)c(-c3ccc4c(cnn4C)c3)c21 [Example 40, 2-(1-(2-(3-Cyclopropyl-1-methyl-1H-pyrazol-4-yl)-6-methyl-1-(1-methyl-1H-indazol-5-yl)-7-oxo-6,7-dihydro-3H-spiro[dipyrrolo[2,3-b:3′,2′-d]pyridine-8,4′-piperidin]-1′-yl)cyclobutyl)acetonitrile, trifluoroacetate salt] | > 2500 | ≤ 100 | > 2500 | ≤ 100 |
| CC(=O)N1CCC(n2cc(-c3[nH]c4ncc5c(c4c3-c3ccc4c(cnn4C)c3)C3(CCN(C4(CC#N)CCC4)CC3)C(=O)N5C)cn2)CC1 [Example 41, 2-(1-(2-(1-(1-Acetylpiperidin-4-yl)-1H-pyrazol-4-yl)-6-methyl-1-(1-methyl-1H-indazol-5-yl)-7-oxo-6,7-dihydro-3H-spiro[dipyrrolo[2,3-b:3′,2′-d]pyridine-8-4′-piperidin]-1′-yl)cyclobutyl)acetonitrile, trifluoroacetate salt] | 100 to 500 | ≤ 100 | ≤ 100 | ≤ 100 |
| CN1C(=O)C2(CCN(C3(CC#N)CCC3)CC2)c2c1cnc1[nH]c(-c3ccn(C)c3)c(-c3ccc4c(cnn4C)c3)c21 [Example 42, 2-(1-(6-Methyl-1-(1-methyl-1H-indazol-5-yl)-2-(1-methyl-IH-pyrrol-3-yl)-7-oxo-6,7-dihydro-3H-spiro[dipyrrolo[2,3b:3′,2′-d]pyridine-8,4′-piperidin]-1′-yl)cyclobutyl)acetonitrile, trifluoroacetate salt] | 500 to 1250 | ≤ 100 | 100 to 500 | ≤ 100 |
| CN1C(=O)C2(CCN(C3(CC#N)CCC3)CC2)c2c1cnc1[nH]c(-c3cnn4c3CCCC4)c(-c3ccc4c(cnn4C)c3)c21 [Example 43, 2-(1-(6-Methyl-1-(1-methyl-1H-indazol-5-yl)-7-oxo-2-(4,5,6,7-tetrahydropyrazolo[1,5-a]pyridin-3-yl)-6,7-dihydro-3H-spiro[dipyrrolo[2,3-b:3′,2′-d]pyridine-8,4′-piperidin]-1′-yl)cyclobutyl)acetonitrile] | > 2500 | ≤ 100 | > 2500 | ≤ 100 |
| COC(C)(C)Cn1cc(-c2[nH]c3ncc4c(c3c2-c2ccc3c(cnn3C)c2)C2(CCN(C3(CC#N)CCC3)CC2)C(=O)N4C)cn1 [Example 44, 2-(1-(2-(1-(2-Methoxy-2-methylpropyl)-1H-pyrazol-4-yl)-6-methyl-1-(1-methyl-1H-indazol-5-yl)-7-oxo-6,7-dihydro-3H-spiro[dipyrrolo[2,3-b:3′,2′-d]pyridine-8,4′-piperidin]-1′-yl)cyclobutyl)acetonitrile, trifluoroacetate salt] | 100 to 500 | ≤ 100 | 100 to 500 | ≤ 100 |
| O=C(O)C(F)(F)F.[2H]C([2H])([2H])n1ccc2cc(-c3c(-c4cnn(CCOC)c4)[nH]c4ncc5c(c34)C3(CCN(C4(CC#N)CCC4)CC3)C(=O)N5C)ccc21 [Example 46, 2-(1-(2-(1-(2-Methoxyethyl)-1H-pyrazol-4-yl)-6-methyl-1-(1-(methyl-d3)-1H-indol-5-yl)-7-oxo-6,7-dihydro-3H-spiro[dipyrrolo[2,3-b:3′,2′-d]pyridine-8,4′-piperidin]-1′-yl)cyclobutyl)acetonitrile, trifluoroacetate salt] | 500 to 1250 | ≤ 100 | 500 to 1250 | ≤ 100 |
| COc1c(F)cc(-c2c(-c3cnn(CC(C)(C)O)c3)[nH]c3ncc4c(c23)C2(CCN(C3(CC#N)CCC3)CC2)C(=O)N4C)cc1F [Example 47, 2-(1-(1-(3,5-Difluoro-4-methoxyphenyl)-2-(1-(2-hydroxy-2-methylpropyl)-1H-pyrazol-4-yl)-6-methyl-7-oxo-6,7-dihydro-3H-spiro[dipyrrolo[2,3-b:3′,2′-d]pyridine-8,4′-piperidin]-1′-yl)cyclobutyl)acetonitrile, trifluoroacetate salt] | > 2500 | ≤ 100 | > 2500 | ≤ 100 |
| CN1C(=O)C2(CCN(C3(CC#N)CCC3)CC2)c2c1cnc1[nH]c(-c3cnn(CC(C)(C)O)c3)c(-c3cc4cnccc4s3)c21 [Example 48, 2-(1-(2-(1-(2-Hydroxy-2-methylpropyl)-1H-pyrazol-4-yl)-6-methyl-7-oxo-1-(thieno[3,2-c]pyridin-2-yl)-6,7-dihydro-3H-spiro[dipyrrolo[2,3-b:3′,2′-d]pyridine-8,4′-piperidin]-1′-yl)cyclobutyl)acetonitrile, trifluoroacetate salt] | 100 to 500 | ≤ 100 | 100 to 500 | ≤ 100 |
| CN1C(=O)C2(CCN(C3(CC#N)CCC3)CC2)c2c1cnc1[nH]c(-c3cnn(CC(C)(C)O)c3)c(-c3ccc(C4CC4)cc3)c21 [Example 49, 2-(1-(1-(4-Cyclopropylphenyl)-2-(1-(2-hydroxy-2-methylpropyl)-1H-pyrazol-4-yl)-6-methyl-7-oxo-6,7-dihydro-3H-spiro[dipyrrolo[2,3-b:3′,2′-d]pyridine-8,4′-piperidin]-1′-yl)cyclobutyl)acetonitrile, trifluoroacetate salt] | > 2500 | ≤ 100 | > 2500 | ≤ 100 |
| CN1C(=O)C2(CCN(C3(CC#N)CCC3)CC2)c2c1cnc1[nH]c(-c3cnn(CC(C)(C)O)c3)c(-c3ccc(OC(F)(F)F)cc3)c21 [Example 50, 2-(1-(2-(1-(2-Hydroxy-2-methylpropyl)-1H-pyrazol-4-yl)-6-methyl-7-oxo-1-(4-(trifluoromethoxy)phenyl)-6,7-dihydro-3H-spiro[dipyrrolo[2,3-b:3′,2′-d]pyridine-8,4′-piperidin]-1′-yl)cyclobutyl)acetonitrile, trifluoroacetate salt] | > 2500 | ≤ 100 | > 2500 | ≤ 100 |
